From patent US7935869B2, “Chimeric gene with several herbicide tolerance genes, plant cell and plant resistant to several herbicides” (Bayer S.A.S., priority 1996, dated 2011)
Like-named read-outs stand apart in the source and are kept apart here.

Tests used:
[1] = system: maize EPSPS mutant Ala 101/Ile 102; test: EPSP synthase enzymatic activity, resistance to glyphosate in vitro; assay type: biochemical
Method: (§1) The various EPSP synthase genes are introduced in the form of an NcoI-HindIII cassette into the plasmid is vector pTrc99a (Pharmacia, ref: 27-5007-01) cut with NcoI and HindIII. The recombinant E. coli DH10B overexpressing the various EPSP syntheses are sonicated in 40 ml of buffer per 10 g of culotted cells and washed with this same buffer (200 mM Tris-HCl pH 7.8, 50 mM mercaptoethanol, 5 mM EDTA and 1 mM PMSF), to which 1 g of polyvinylpyrrolidone is added. The suspension is stirred for 15 minutes at 4° C. and then centrifuged for 20 minutes at 27,000 g and at 4° C.
(§2) The supernatant is supplemented with ammonium sulphate so as to bring the solution to 40% saturation with ammonium sulphate. The mixture is centrifuged for 20 minutes at 27,000 g and at 4° C. The new supernatant is supplemented with ammonium sulphate so as to bring the solution to 70% saturation with ammonium sulphate. The mixture is centrifuged for 30 minutes at 27,000 g and at 4° C. The EPSP synthase present in this protein pellet is taken up in 1 ml of buffer (20 mM Tris-HCl pH 7.8 and 50 mM mercaptoethanol). This solution is dialysed overnight against two litres of this same buffer at 4° C.
(§3) The activity of each enzyme as well as its resistance to glyphosate is measured in vitro over 10 minutes at 37° C. in the following reaction mixture: 100 mM maleic acid pH 5.6, 1 mM phosphoenol pyruvate, 3 mM shikimate-3-phosphate (prepared according to Knowles P. P. and Sprinson D. B., 1970, Methods in Enzymol., 17A, 351-352 from Aerobacter aerogenes strain ATCC 25597) and 10 mM potassium fluoride. The enzymatic extract is added at the last moment after the addition of glyphosate whose final concentration varies from 0 to 20 mM.
(§4) The activity is measured by assaying the phosphate liberated according to the technique of Tausky H. A. and Shorr B., 1953, J. Biol. Chem., 202, 675-685.

maize EPSPS mutant Ala = test: as above; assay type: biochemical
Method: as §1, §2, §3, §4

[2] = target: T1, maize EPSPS mutant Ile 102 (Zea mays, UniProt A0A1D6NVZ6, T164I); test: as above; assay type: biochemical
T1 sequence (A0A1D6NVZ6 63-506 T164I): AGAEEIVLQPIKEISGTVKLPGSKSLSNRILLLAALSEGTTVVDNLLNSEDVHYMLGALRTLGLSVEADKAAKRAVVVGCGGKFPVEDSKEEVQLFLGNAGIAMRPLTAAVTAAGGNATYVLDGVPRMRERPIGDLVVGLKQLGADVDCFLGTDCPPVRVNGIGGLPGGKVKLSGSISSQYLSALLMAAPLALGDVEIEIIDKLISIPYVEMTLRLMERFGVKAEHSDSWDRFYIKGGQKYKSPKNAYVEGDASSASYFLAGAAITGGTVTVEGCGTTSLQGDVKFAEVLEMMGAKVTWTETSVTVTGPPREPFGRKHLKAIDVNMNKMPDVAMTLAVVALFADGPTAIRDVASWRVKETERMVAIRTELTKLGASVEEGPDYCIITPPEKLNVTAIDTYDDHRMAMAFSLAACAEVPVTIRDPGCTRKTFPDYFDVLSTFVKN
Method: as §1, §2, §3, §4

[3] = system: maize EPSPS mutant Ile 102/Ser 106; test: as above; assay type: biochemical
Method: as §1, §2, §3, §4

[4] = system: maize EPSPS mutant Ser106; test: as above; assay type: biochemical; settings: 0.12 mM glyphosate
Method: as §1, §2, §3, §4

[5] = system: wild-type (WT) maize EPSPS; test: as above; assay type: biochemical; settings: 0.12 mM glyphosate; 10 minutes at 37° C., pH 5.6
Method: as §1, §2, §3, §4

[6] = system: wild-type tobacco without tolerance gene; test: Postemergence tolerance of tobacco, percentage destruction; assay type: in vivo; settings: 17 days after treatment
Method: (§5) In this trial, each test is performed on a sample of 10 plants, 10 plants being kept untreated.
(§6) All the treatments are performed by spraying at the rate of 500 l of spraying mixture per hectare.
(§7) For the postemergence treatment, sowing is performed and then the plants are transplanted in 9 cm×9 cm pots.
(§8) The postemergence treatments are carried out at a well developed stage (3-4 leaves). Batches of plants, respectively wild-type and genetically transformed, obtained above are divided into several parts, with: […]

[7] = system: PBD6 tobacco plants HPPD + EPSPS; test: as above; assay type: in vivo; settings: 17 days after treatment
Method: as §5, §6, §7
The postemergence treatments are carried out at a well developed stage (3-4 leaves). Batches of plants, respectively wild-type and genetically transformed, obtained above are divided into several parts, with:
Under these conditions, the following phytotoxicities are observed 17 days after the treatment, expressed as percentage destruction indicated in the following table, as well as the number of plants per batch and the doses of herbicide(s) expressed in gram of active substance per hectare: […]

[8] = system: PBD6 tobacco transformed with pRP 2012; test: Tolerance of tobacco transformed with chimeric gene pRP 2012 (HPPD + double mutant EPSPS); assay type: in vivo; settings: under the conditions described in Example 7
Method: The chimeric gene pRP 2012 described below is transferred into the PBD6 industrial tobacco according to the transformation and regeneration procedures already described in European Application EP No. 0 508 909.
The regeneration of the PBD6 tobacco (source SEITA France) from foliar explants is carried out on a Murashige and Skoog (MS) basal medium comprising 30 g/l of sucrose and 350 mg/l of cefotaxime and 1 mg/l of isoxaflutole. The foliar explants are removed from is greenhouse plants or in vitro and transformed according to the foliar disc technique (Science 1985, Vol. 227, p. 1229-1231) in three successive stages: the first comprises the induction of shoots on an MS medium supplemented with 30 g/l of sucrose containing 0.05 mg/l of naphthylacetic acid (ANA) and 2 mg/l of benzylaminopurine (BAP) for 15 days and 1 mg/l of isoxaflutole. The green shoots formed during this stage are then developed by culturing on an MS medium supplemented with 30 g/l of sucrose and 1 mg/l of isoxaflutole but containing no hormone, for 10 days. The shoots that have developed are then removed and they are cultured on MS rooting medium with half the content of salts, vitamins and sugars and 1 mg/l of isoxaflutole and containing no hormone. […]
All the plants obtained according to this protocol are analysed by PCR with primers specific for P. fluorescens HPPD. […]

[9] = system: control tobacco, not transformed (PBD6); test: Greenhouse treatment of non-transformed control tobacco with isoxaflutole; assay type: in vivo
Method: Upon leaving in vitro, the transformed tobacco plantlets were acclimatized in a greenhouse (60% relative humidity, temperature: 20° C. at night and 23° C. during the day) for five weeks and then treated with 4-[4-CF3-2-(methylsulphonyl)benzoyl]-5-cyclopropylisoxazole.
The control tobacco, not transformed and treated with 4-[4-CF3-2-(methylsulphonyl)benzoyl]-5-cyclopropylisooxazole at doses ranging from 50 to 400 g/ha, develop chlorosis in about 72 hours, which intensifies and develops into very pronounced necrosis within one week (covering about 80% of the terminal leaves).

[10] = system: PBD6 tobacco overexpressing the P. fluorescens HPPD; test: Greenhouse treatment of transformed tobacco overexpressing HPPD with isoxaflutole; assay type: in vivo
Text: To determine the efficiency of these two chimeric genes, they were transferred into the industrial tobacco PBD6 according to the transformation and regeneration techniques already described in European Application EP No. 0 508 909.
The vector is introduced into the non oncogenic Agrobacterium EHA 101 strain (Hood et al., 1987) carrying the cosmaid pTVK 291 (Komari et al., 1986). The transformation technique is based on the procedure by Horsh R. et al., (1985) Science, 227, 1229-1231.
The regeneration of the PBD6 tobacco (source SEITA France) from foliar explants is carried out on a Murashige and Skoog (MS) basal medium comprising 30 g/l of sucrose and 100 μg/ml of kanamycin. The foliar explants are removed from greenhouse plants or in vitro and transformed according to the foliar disc technique (Science 1985, Vol. 227, p. 1229-1231) in three successive stages: the first comprises the induction of shoots on an MS medium supplemented with 30 g/l of sucrose containing 0.05 mg/l of naphthylacetic acid (ANA) and 2 mg/l of benzylaminopurine (BAP) for 15 days. The shoots formed during this stage are then developed by culturing on an MS medium supplemented with 30 g/l of sucrose but containing no hormone, for 10 days. […]

[11] = system: PBD6 tobacco plants HPPD + OXY; test: Postemergence tolerance of tobacco, percentage destruction; assay type: in vivo; settings: 17 days after treatment
Method: as §5, §6, §7, §8

nontransgenic maize = test: Selection of maize seeds on sand after isoxaflutole treatment; assay type: in vivo; settings: 100 g/ha, 20 seeds sown
Method: (§9) The transformed plants obtained above produced pollen, assumed in part to be transgenic, which fertilized ovules from a nontransgenic wild-type maize. The seeds obtained are selected on sand after treating with isoxaflutole.
The selection protocol is the following: 800 ml of Fontainebleau sand are placed in a tub with sides 15×20 cm. These tubs are then sprayed with water and kept hydrated by supplying a nutritive solution consisting of 5 ml of Quinoligo (Quinoline) per litre of water. Twenty maize seeds are placed on the tubs, which are then treated with isoxaflutole by spraying at the rate of 100 to 200 g of active substance per hectare (300 or 600 μg of active substance per tub). The tubs are then placed in culture in a greenhouse.

[12] = system: maize genotype 261 2A2 (progeny of HPPD-transformed plants); test: as above; assay type: in vivo; settings: 10 seeds sown
Method: as §9
(§10) The selection protocol is the following: 800 ml of Fontainebleau sand are placed in a tub with sides 15×20 cm. These tubs are then sprayed with water and kept hydrated by supplying a nutritive solution consisting of 5 ml of Quinoligo (Quinoline) per litre of water. […] The tubs are then placed in culture in a greenhouse.

[13] = system: maize genotype 261 2B 459 (progeny of HPPD-transformed plants); test: as above; assay type: in vivo; settings: 10 seeds sown
Method: as §9, §10

[14] = system: maize genotype 261 2D2 (progeny of HPPD-transformed plants); test: as above; assay type: in vivo; settings: 10 seeds sown
Method: as §9, §10

SMILES: O=C(O)CNCP(=O)(O)O [glyphosate]
- inhibition of enzyme activity ([1]; 0.12 mM glyphosate): not or not strongly inhibited
- inhibition of enzyme activity ([1]; 1.2 mM glyphosate): not being inhibited
- inhibition of enzyme activity ([1]; up to concentrations of 10 m glyphosate): not inhibited
- inhibition of enzyme activity (maize EPSPS mutant Ala): not inhibited
- inhibition of enzyme activity (maize EPSPS mutant Ala; 1.2 mM glyphosate): not being inhibited
- inhibition of enzyme activity ([2]; 0.12 mM glyphosate): not or not strongly inhibited
- IC50 ([2]; 10 minutes at 37° C., pH 5.6, read-out: glyphosate concentration to inhibit the enzyme by 50%): 1200 µM
- inhibition of enzyme activity ([3]; 0.12 mM glyphosate): not or not strongly inhibited
- inhibition of enzyme activity ([3]; 1.2 mM glyphosate): not being inhibited
- reduction of enzyme activity ([3]; 20 mM glyphosate): not reduced
- inhibition of enzyme activity [4]: 50%
- inhibition of enzyme activity [5]: 85%
- phytotoxicity, percentage destruction ([6]; 800 g/ha postemergence): 100%
- phytotoxicity, percentage destruction ([6]; 1200 g/ha postemergence): 100%
- phytotoxicity, percentage destruction ([7]; 800 g/ha postemergence): 0%
- phytotoxicity, percentage destruction ([7]; 1200 g/ha postemergence): 0%
- tolerance [8]: tolerant

SMILES: CS(=O)(=O)c1cc(C(F)(F)F)ccc1C(=O)c1cnoc1C1CC1 [isoxaflutole, 4-[4-CF3-2-(methylsulphonyl)benzoyl]-5-cyclopropylisoxazole]
- time to development of chlorosis ([9]; doses ranging from 50 to 400 g/ha): about 72 hours
- very pronounced necrosis, share of the terminal leaves covered ([9]; within one week, doses 50 to 400 g/ha): about 80%
- protection against treatment ([10]; dose of 400 g/ha): very well protected
- protection against treatment, symptoms ([10]; enzyme overexpressed in the chloroplast (vector pRP V)): perfectly protected and shows no symptom
- phytotoxicity, percentage destruction ([11]; 200 g/ha postemergence): 4%
- phytotoxicity, percentage destruction ([11]; 400 g/ha postemergence): 5%
- phytotoxicity, percentage destruction ([6]; 200 g/ha postemergence): 75%
- phytotoxicity, percentage destruction ([6]; 400 g/ha postemergence): 85%
- phytotoxicity, percentage destruction ([7]; 200 g/ha postemergence): 2%
- phytotoxicity, percentage destruction ([7]; 400 g/ha postemergence): 3%
- tolerance [8]: tolerant
- Number of dead plants (nontransgenic maize): 20
- Number of germinated plants (nontransgenic maize): 20
- Number of surviving plants (nontransgenic maize): 0
- Number of dead plants ([12]; 100 g/ha): 3
- Number of germinated plants ([12]; 100 g/ha): 5
- Number of surviving plants ([12]; 100 g/ha): 2
- Number of dead plants ([12]; 200 g/ha): 7
- Number of germinated plants ([12]; 200 g/ha): 7
- Number of surviving plants ([12]; 200 g/ha): 0
- Number of dead plants ([13]; 100 g/ha): 5
- Number of germinated plants ([13]; 100 g/ha): 10
- Number of surviving plants ([13]; 100 g/ha): 5
- Number of dead plants ([13]; 200 g/ha): 4
- Number of germinated plants ([13]; 200 g/ha): 9
- Number of surviving plants ([13]; 200 g/ha): 5
- Number of dead plants ([14]; 100 g/ha): 6
- Number of germinated plants ([14]; 100 g/ha): 9
- Number of surviving plants ([14]; 100 g/ha): 3
- Number of dead plants ([14]; 200 g/ha): 7
- Number of germinated plants ([14]; 200 g/ha): 10
- Number of surviving plants ([14]; 200 g/ha): 3
